In ChEMBL document CHEMBL3046422, “Insecticidal activity of imidacloprid derivatives with an alkoxy group at the C5 position of the pyridine ring” (2006):

Columns and labels:
Type in all cases: functional
[1] = test system: Periplaneta americana; experiment: Insecticidal activity against adult male Periplaneta americana (American cockroach) dosed through injection into abdomen assessed as mortality measured 24 hr post dose pre-treated with 50 ug metabolic inhibitor PB and 50 ug NIA16388 1 hr before compound injection
[2] = test system: Periplaneta americana; experiment: Insecticidal activity against adult male Periplaneta americana (American cockroach) dosed through injection into abdomen assessed as mortality measured 24 hr post dose pre-treated with 50 ug metabolic inhibitor PB 1 hr before compound injection
[3] = test system: Periplaneta americana; experiment: Insecticidal activity against adult male Periplaneta americana (American cockroach) dosed through injection into abdomen assessed as mortality measured 24 hr post dose

| SMILES | log(1/MLD) [1] | log(1/MLD) [2] | log(1/MLD) [3] |
| --- | --- | --- | --- |
| O=[N+]([O-])/N=C1\NCCN1Cc1ccc(Cl)nc1 [IMIDACLOPRID] | 10.15 | 10.15 | 8.96 |
| O=[N+]([O-])/N=C1\NCCN1Cc1cnc(Cl)c(Cl)c1 [5-CHLOROIMIDACLOPRID] | 9.05 | 9.05 | 8.35 |
| CCCOc1cc(CN2CCN/C2=N\[N+](=O)[O-])cnc1Cl | 6.89 | 6.89 | <6.86 |
| CCOc1cc(CN2CCN/C2=N\[N+](=O)[O-])cnc1Cl | 8.08 | 7.87 | 7.07 |
| CCCCOc1cc(CN2CCN/C2=N\[N+](=O)[O-])cnc1Cl | 8.12 | 8.12 | 7.12 |
| COc1cc(CN2CCN/C2=N\[N+](=O)[O-])cnc1Cl | 8.74 | 8.74 | 7.43 |
| O=[N+]([O-])/N=C1/NCCN1Cc1cnc(Cl)c(F)c1 [5-FLUOROIMIDACLOPRID] | 9.91 | 9.91 | 8.82 |
| CCCCCOc1cc(CN2CCN/C2=N\[N+](=O)[O-])cnc1Cl | 6.46 | 6.46 | 5.86 |
| CC(C)Oc1cc(CN2CCN/C2=N\[N+](=O)[O-])cnc1Cl | 8.1 | 7.89 | 6.99 |
